Activity and LC50 data for 21 molecules are collected here from ChEMBL document CHEMBL1208750, “Synthesis, larvicidal activity, and SAR studies of new benzoylphenylureas containing oxime ether and oxime ester group” (2010).

In brackets after ≈: the same amount, converted by molar mass.

Type in all cases: functional
Test [1] has as its system Mythimna separata. Nature of the test: Larvicidal activity against Oriental armyworm at 10 mg/L.
For test [2], the system named is Aedes aegypti. Nature of the test: Larvicidal activity against mosquito larvae at 0.5 mg/L.
Test [3] has as its system Mythimna separata. Nature of the test: Larvicidal activity against Oriental armyworm at 25 mg/L.
Test [4] deals with Mythimna separata. In words: Larvicidal activity against Oriental armyworm at 200 mg/L.
In test [5] the test system is Mythimna separata. In words: Larvicidal activity against Oriental armyworm at 100 mg/L.
Test [6] deals with Aedes aegypti. Nature of the test: Larvicidal activity against mosquito larvae at 0.25 mg/L.
In test [7] the test system is Mythimna separata. Nature of the test: Larvicidal activity against Oriental armyworm at 5 mg/L.
Test [8] relates to Mythimna separata. In words: Larvicidal activity against Oriental armyworm at 50 mg/L.
Test [9] relates to Mythimna separata. In words: Larvicidal activity against Oriental armyworm at 0.5 mg/L.
Test [10] relates to Mythimna separata. In words: Larvicidal activity against Oriental armyworm at 1 mg/L.
For test [11], the system named is Aedes aegypti. In words: Larvicidal activity against mosquito larvae at 0.1 mg/L.
Test [12] relates to Aedes aegypti. Nature of the test: Larvicidal activity against mosquito larvae at 0.025 mg/L.
Test [13] concerns Mythimna separata. Nature of the test: Larvicidal activity against Oriental armyworm at 2.5 mg/L.
Test [14] has as its system Aedes aegypti. In words: Larvicidal activity against mosquito larvae at 0.05 mg/L.
For test [15], the system named is Aedes aegypti. Nature of the test: Larvicidal activity against mosquito larvae at 1 mg/L.
For test [16], the system named is Aedes aegypti. In words: Larvicidal activity against mosquito larvae at 2 mg/L.
For test [17], the system named is Aedes aegypti. In words: Larvicidal activity against mosquito larvae at 0.01 mg/L.
In test [18] the test system is Aedes aegypti. In words: Larvicidal activity against mosquito larvae at 0.005 mg/L.
A further test relates to Plutella xylostella. Nature of the test: Larvicidal activity against diamondback moth.
In test [19] the test system is Aedes aegypti. Nature of the test: Larvicidal activity against mosquito larvae at 0.0001 mg/L.
The test system of the next test is Ostrinia nubilalis. Nature of the test: Larvicidal activity against corn Borer.
The next test deals with Spodoptera exigua. In words: Larvicidal activity against beet armyworm.
In test [20] the test system is Mythimna separata. Nature of the test: Larvicidal activity against Oriental armyworm at 0.25 mg/L.
Test [21] deals with Aedes aegypti. In words: Larvicidal activity against mosquito larvae at 0.0025 mg/L.
Test [22] concerns Aedes aegypti. In words: Larvicidal activity against mosquito larvae at 0.001 mg/L.
The subject of test [23] is Mythimna separata. Nature of the test: Larvicidal activity against Oriental armyworm at 0.125 mg/L.
Test [24] has as its system Aedes aegypti. Nature of the test: Larvicidal activity against mosquito larvae at 0.00025 mg/L.

Turning to `Cc1cccc(O/N=C/c2ccc(NC(=O)NC(=O)c3c(F)cccc3F)cc2)c1`, the Activity with Mythimna separata [1] is given as 10%; in the test with Aedes aegypti [2] it was 90%; in the test on Mythimna separata [3] it was 30%; in the test on Mythimna separata [4] it was 100%; in the test on Mythimna separata [5], 90%; in the test with Aedes aegypti [6], 60%. The Activity in the test on Mythimna separata [7] amounted to 0%; in the test with Mythimna separata [8], 50%.

`C/C(=N\OC(C)C)c1ccc(NC(=O)NC(=O)c2c(F)cccc2F)cc1`: the Activity with Mythimna separata [1] came out at 100%; in the test with Aedes aegypti [2], 100%; in the test with Mythimna separata [9], 0%; with Mythimna separata [10], 10%; in the test with Aedes aegypti [11], 90%; with Aedes aegypti [12], 30%. Also, the Activity in the test with Aedes aegypti [6] worked out at 100%; in the test on Mythimna separata [13] it was 65%; in the test on Mythimna separata [7], 100%; in the test with Aedes aegypti [14] it was 90%.

With `C/C(=N\OCc1ccccc1)c1ccc(NC(=O)NC(=O)c2c(F)cccc2F)cc1`, the Activity in the test on Mythimna separata [1] was determined as 10%; with Mythimna separata [3], 80%; with Aedes aegypti [15], 0%; in the test on Aedes aegypti [16], 0%; in the test on Mythimna separata [8], 90%.

`CC(C)O/N=C(\C#N)c1ccc(NC(=O)NC(=O)c2c(F)cccc2F)cc1`: the Activity turned out to be 80% with Mythimna separata [1]; 100% in the test on Aedes aegypti [11]; 10% in the test on Aedes aegypti [12]; 0% in the test with Aedes aegypti [17]; 100% in the test on Aedes aegypti [6]; 0% in the test on Mythimna separata [13]. Moreover, the Activity with Mythimna separata [7] came to 40%; in the test on Mythimna separata [8], 100%; in the test with Aedes aegypti [14], 50%.

Take `N#C/C(=N\OCc1ccccc1)c1ccc(NC(=O)NC(=O)c2c(F)cccc2F)cc1`: the Activity in the test with Aedes aegypti [2] was 100%; in the test with Mythimna separata [4], 0%; in the test on Aedes aegypti [11], 90%; in the test with Aedes aegypti [6], 100%; in the test with Aedes aegypti [14], 0%.

Regarding `CC(C)O/N=C/c1ccc(NC(=O)NC(=O)c2c(F)cccc2F)c(Cl)c1`, the Activity was determined as 100% with Aedes aegypti [2]; 0% in the test with Mythimna separata [9]; 30% in the test with Aedes aegypti [18]; 10% in the test with Mythimna separata [10]; 100% with Aedes aegypti [17]; 90% in the test with Mythimna separata [13]. The molecule further showed an Activity in the test with Mythimna separata [7] of 100%.

Turning to `CC(C)O/N=C/c1ccc(NC(=O)NC(=O)c2c(F)cccc2F)c(F)c1`, the LC50 with Plutella xylostella was found to be 2.75 µg/mL (≈ 7.25 µM); in the test on Ostrinia nubilalis, 7.59 µg/mL (≈ 20 µM); with Spodoptera exigua, 4.32 µg/mL (≈ 11.4 µM). Besides, the Activity with Aedes aegypti [19] was 10%; in the test with Mythimna separata [9], 90%; with Aedes aegypti [18], 100%; in the test on Mythimna separata [10] it was 100%; in the test on Aedes aegypti [17] it was 100%; in the test on Mythimna separata [20], 10%. Moreover, the Activity turned out to be 100% in the test with Mythimna separata [13], 50% in the test with Aedes aegypti [21], 20% in the test with Aedes aegypti [22] and 0% with Mythimna separata [23].

For the molecule `CC(C)O/N=C/c1ccc(NC(=O)NC(=O)c2c(F)cccc2F)cc1Cl`, the Activity is on record as 0% with Mythimna separata [9]; 100% in the test on Aedes aegypti [18]; 10% in the test with Mythimna separata [10]; 100% in the test on Aedes aegypti [17]; 90% with Mythimna separata [13]; 30% in the test with Aedes aegypti [21]. For the same molecule, the Activity in the test with Aedes aegypti [22] came to 10%; in the test with Mythimna separata [7], 100%.

As for `CC(=O)O/N=C/c1ccc(NC(=O)NC(=O)c2c(F)cccc2F)cc1`, the Activity with Mythimna separata [1] was determined as 0%; with Aedes aegypti [2], 20%; with Mythimna separata [3], 10%; in the test on Aedes aegypti [15], 100%; in the test on Mythimna separata [4] it was 100%; with Mythimna separata [5], 50%. The Activity turned out to be 0% in the test on Aedes aegypti [6], 100% in the test with Aedes aegypti [16] and 20% with Mythimna separata [8].

On to `O=C(NC(=O)c1c(F)cccc1F)Nc1ccc(/C=N/OC(=O)c2ccccc2)cc1`, for which the Activity came out at 80% in the test on Mythimna separata [1]; 100% with Aedes aegypti [2]; 90% in the test with Mythimna separata [3]; 100% with Aedes aegypti [15]; 30% in the test on Aedes aegypti [11]; 80% in the test on Aedes aegypti [6]. The Activity in the test on Mythimna separata [13] was found to be 0%; in the test on Mythimna separata [7], 40%.

For the molecule `Cc1cc(C)cc(C(=O)O/N=C/c2ccc(NC(=O)NC(=O)c3c(F)cccc3F)cc2)c1`, the Activity in the test with Mythimna separata [1] stood at 100%; in the test on Aedes aegypti [2], 100%; in the test with Mythimna separata [3], 100%; with Aedes aegypti [11], 90%; in the test with Aedes aegypti [12] it was 10%; in the test on Aedes aegypti [6] it was 100%. Also, the Activity in the test on Mythimna separata [13] stood at 0%; with Mythimna separata [7], 90%; in the test with Aedes aegypti [14], 90%.

On to `CC(C)C(=O)O/N=C/c1ccc(NC(=O)NC(=O)c2c(F)cccc2F)cc1`, for which the Activity in the test on Mythimna separata [1] stood at 100%; in the test on Aedes aegypti [2], 100%; in the test with Mythimna separata [9], 0%; in the test with Mythimna separata [10], 10%; in the test on Aedes aegypti [11], 70%; with Aedes aegypti [12] it was 0%. Also, the Activity is listed as 100% with Aedes aegypti [6], 20% with Mythimna separata [13], 100% with Mythimna separata [7] and 10% with Aedes aegypti [14].

Consider `O=C(NC(=O)c1c(F)cccc1F)Nc1ccc(/C=N/Oc2ccc(Cl)cc2)cc1`, for which the Activity was found to be 100% with Mythimna separata [1]; 20% with Aedes aegypti [24]; 0% in the test with Mythimna separata [10]; 80% with Mythimna separata [13]; 100% with Aedes aegypti [21]; 100% with Aedes aegypti [22]. Moreover, in the test on Mythimna separata [7], the Activity is 100%.

As to `O=C(NC(=O)c1c(F)cccc1F)Nc1ccc(/C=N/Oc2ccc(Br)cc2)cc1`, the Activity was 90% in the test on Aedes aegypti [19]; 100% in the test with Mythimna separata [1]; 100% in the test with Mythimna separata [3]; 100% in the test with Aedes aegypti [18]; 0% in the test with Mythimna separata [10]; 100% in the test on Aedes aegypti [17]. In addition, the Activity with Mythimna separata [13] amounted to 90%; in the test with Aedes aegypti [21] it was 40%; with Aedes aegypti [22] it was 0%; in the test with Mythimna separata [7], 90%; in the test with Mythimna separata [8] it was 90%.

As to `O=C(NC(=O)c1c(F)cccc1F)Nc1ccc(/C=N/Oc2ccccc2)cc1`, the Activity with Mythimna separata [1] is listed as 20%; in the test on Mythimna separata [3] it was 40%; in the test on Mythimna separata [4] it was 100%; in the test on Aedes aegypti [18], 20%; in the test with Mythimna separata [5], 100%; with Aedes aegypti [12], 100%. Moreover, the results for the Activity with Aedes aegypti [17], in the test on Aedes aegypti [21] and in the test with Mythimna separata [7] were 100%, 10% and 0%, respectively.

Regarding `CC(C)(C)O/N=C/c1ccc(NC(=O)NC(=O)c2c(F)cccc2F)c(F)c1`, the 50% lethal concentration (LC50) with Plutella xylostella was 0.57 µg/mL (≈ 1.45 µM); with Ostrinia nubilalis it was 10 µg/mL (≈ 25.5 µM); with Spodoptera exigua, 3.37 µg/mL (≈ 8.57 µM). Besides, the Activity is listed as 90% with Mythimna separata [9], 100% with Mythimna separata [10], 10% with Mythimna separata [20] and 100% with Mythimna separata [13].

`CC(C)(C)O/N=C/c1cccc(NC(=O)NC(=O)c2c(F)cccc2F)c1`: the Activity in the test on Mythimna separata [3] turned out to be 90%; in the test with Mythimna separata [5], 100%; with Mythimna separata [8], 100%.

`CC(C)(C)O/N=C/c1ccccc1NC(=O)NC(=O)c1c(F)cccc1F` yielded an Activity in the test on Mythimna separata [4] of 0%.

In the case of `CC(C)(C)O/N=C/Cc1ccc(NC(=O)NC(=O)c2c(F)cccc2F)cc1`, the Activity worked out at 80% in the test with Mythimna separata [1], 100% with Mythimna separata [3] and 100% in the test on Mythimna separata [8].

Consider `CC(C)O/N=C/c1ccc(NC(=O)NC(=O)c2c(F)cccc2F)cc1`, for which the Activity in the test on Mythimna separata [9] was found to be 50%; in the test with Aedes aegypti [18], 75%; in the test on Mythimna separata [10], 100%; in the test on Mythimna separata [20] it was 0%; with Mythimna separata [13], 100%; in the test with Aedes aegypti [21], 15%. The Activity in the test with Aedes aegypti [22] was determined as 0%.

Take `O=C(NC(=O)c1c(F)cccc1F)Nc1ccc(CO/N=C(/c2ccc(Cl)cc2)C2CC2)cc1` [FLUCYCLOXURON]: the LC50 in the test with Plutella xylostella stood at 72.9 µg/mL (≈ 151 µM); in the test with Ostrinia nubilalis it was 9.25 µg/mL (≈ 19.1 µM); in the test on Spodoptera exigua it was 102 µg/mL (≈ 210 µM). For the same molecule, the Activity in the test on Mythimna separata [1] is 95%; in the test with Mythimna separata [9], 0%; in the test with Mythimna separata [10] it was 10%; with Aedes aegypti [11] it was 100%; in the test on Aedes aegypti [12], 15%; in the test on Aedes aegypti [17], 0%. For the same molecule, the Activity with Mythimna separata [13] turned out to be 50%; with Mythimna separata [7] it was 90%; in the test with Aedes aegypti [14], 100%.
